One block for each molecule: values may come before it. Activity calls are given as the source filed them.
Key:
[1] = biological target: T1, Orexin/Hypocretin receptor type 1 (Homo sapiens, UniProt O43613); assay: Fluorescence-based cell-based high throughput dose response assay for antagonists of the orexin 1 receptor (OX1R; HCRTR1). [Related pubchem assays (depositor defined):AID434989, AID435008, AID463079, AID485270, AID492963, AID492964, AID492965, AID493232, AID504717, AID504718]; format: functional
T1 sequence (O43613 whole entry): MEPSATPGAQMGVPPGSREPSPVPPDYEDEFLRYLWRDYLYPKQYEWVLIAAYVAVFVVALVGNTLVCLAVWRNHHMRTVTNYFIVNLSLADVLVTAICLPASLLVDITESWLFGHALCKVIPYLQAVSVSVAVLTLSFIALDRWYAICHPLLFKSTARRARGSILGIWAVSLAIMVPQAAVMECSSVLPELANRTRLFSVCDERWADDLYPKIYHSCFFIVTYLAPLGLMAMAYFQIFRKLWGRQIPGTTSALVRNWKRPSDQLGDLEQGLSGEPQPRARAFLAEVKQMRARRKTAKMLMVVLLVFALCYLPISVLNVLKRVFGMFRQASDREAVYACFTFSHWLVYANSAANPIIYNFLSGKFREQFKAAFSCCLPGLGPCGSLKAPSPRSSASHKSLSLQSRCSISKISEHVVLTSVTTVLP

[2] = biological target: Photoreceptor-specific nuclear receptor (Homo sapiens, UniProt Q9Y5X4); format: functional;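 further: potency for compounds that break the NR2E3 corepressor complex and count as activators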
[3] = biological target: Peroxisome proliferator-activated receptor gamma/Nuclear receptor corepressor 2 (Homo sapiens, UniProt P37231+Q9Y618); format: functional
[4] = biological target: T2, Histone-lysine N-methyltransferase NSD2 (Homo sapiens, UniProt O96028); format: biochemical
T2 sequence (O96028 whole entry): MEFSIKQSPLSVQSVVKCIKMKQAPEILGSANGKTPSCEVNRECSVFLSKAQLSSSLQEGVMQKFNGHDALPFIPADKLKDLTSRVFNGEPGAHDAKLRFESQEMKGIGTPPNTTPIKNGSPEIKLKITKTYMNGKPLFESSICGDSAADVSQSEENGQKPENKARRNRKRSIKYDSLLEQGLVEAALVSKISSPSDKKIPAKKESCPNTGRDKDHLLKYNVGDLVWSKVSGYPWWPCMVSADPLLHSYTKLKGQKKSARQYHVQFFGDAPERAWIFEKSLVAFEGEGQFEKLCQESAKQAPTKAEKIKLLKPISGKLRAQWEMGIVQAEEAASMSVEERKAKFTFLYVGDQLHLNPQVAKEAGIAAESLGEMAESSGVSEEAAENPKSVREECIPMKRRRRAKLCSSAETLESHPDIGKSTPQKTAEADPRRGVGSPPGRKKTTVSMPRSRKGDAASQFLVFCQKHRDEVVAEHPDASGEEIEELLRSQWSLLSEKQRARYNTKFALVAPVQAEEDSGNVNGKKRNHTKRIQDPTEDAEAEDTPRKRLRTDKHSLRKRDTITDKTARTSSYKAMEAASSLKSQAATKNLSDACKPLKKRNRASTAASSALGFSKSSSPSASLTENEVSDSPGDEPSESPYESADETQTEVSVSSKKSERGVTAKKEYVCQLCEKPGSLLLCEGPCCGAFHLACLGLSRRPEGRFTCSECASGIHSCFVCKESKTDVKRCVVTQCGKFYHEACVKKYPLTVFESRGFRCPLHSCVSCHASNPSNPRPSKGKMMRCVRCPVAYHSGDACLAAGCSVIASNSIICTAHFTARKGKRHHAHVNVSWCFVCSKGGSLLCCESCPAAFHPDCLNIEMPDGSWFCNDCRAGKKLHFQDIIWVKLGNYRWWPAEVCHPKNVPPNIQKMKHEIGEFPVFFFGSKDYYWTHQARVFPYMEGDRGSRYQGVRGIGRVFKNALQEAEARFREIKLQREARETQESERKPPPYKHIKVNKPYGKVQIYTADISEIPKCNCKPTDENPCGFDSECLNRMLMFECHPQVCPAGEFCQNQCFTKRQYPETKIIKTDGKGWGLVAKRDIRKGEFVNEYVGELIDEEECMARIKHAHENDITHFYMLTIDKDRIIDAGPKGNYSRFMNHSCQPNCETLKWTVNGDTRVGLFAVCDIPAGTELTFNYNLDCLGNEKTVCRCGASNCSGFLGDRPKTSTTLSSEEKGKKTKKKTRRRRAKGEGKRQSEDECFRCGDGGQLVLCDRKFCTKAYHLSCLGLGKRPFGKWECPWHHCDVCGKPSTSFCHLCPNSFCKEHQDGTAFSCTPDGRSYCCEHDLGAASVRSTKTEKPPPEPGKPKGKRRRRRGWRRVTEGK

[5] = biological target: Intestinal-type alkaline phosphatase (Mus musculus, UniProt P24822); assay: PubChem AID 488785; format: functional
SUMO-activating enzyme = SUMO-activating enzyme (Homo sapiens, UniProt Q9UBT2); assay: blockers of SAE1/SAE2–UBC9 SUMO transfer – biochemical, HTRF, uHTS, primary screen (AID 2006); format: protein-complex assay
[6] = biological target: Protein kinase C theta type (Homo sapiens, UniProt Q04759); assay: Navigating the Kinome. Panel member name: PRKCQ; format: functional
[7] = biological target: Ribosomal protein S6 kinase alpha-3 (Homo sapiens, UniProt P51812); format: functional;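 further: measured within a kinome-wide profiling panel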
[8] = biological target: Mitogen-activated protein kinase 14 (Homo sapiens, UniProt Q16539); format: functional;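 further: part of a kinome-wide panel, MAPK14 entry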
[9] = biological target: Proto-oncogene tyrosine-protein kinase receptor Ret (Homo sapiens, UniProt P07949); format: functional;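 further: measured within a kinome-wide profiling panel, RET as the panel member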
[10] = blockers of HIV-1 envelope-mediated cell-cell fusion – cherry-pick, dose response (AID 652057); format: functional, cell-based

Proto-oncogene tyrosine-protein kinase receptor Ret, sequence (P07949 whole entry, the tested form may be a part): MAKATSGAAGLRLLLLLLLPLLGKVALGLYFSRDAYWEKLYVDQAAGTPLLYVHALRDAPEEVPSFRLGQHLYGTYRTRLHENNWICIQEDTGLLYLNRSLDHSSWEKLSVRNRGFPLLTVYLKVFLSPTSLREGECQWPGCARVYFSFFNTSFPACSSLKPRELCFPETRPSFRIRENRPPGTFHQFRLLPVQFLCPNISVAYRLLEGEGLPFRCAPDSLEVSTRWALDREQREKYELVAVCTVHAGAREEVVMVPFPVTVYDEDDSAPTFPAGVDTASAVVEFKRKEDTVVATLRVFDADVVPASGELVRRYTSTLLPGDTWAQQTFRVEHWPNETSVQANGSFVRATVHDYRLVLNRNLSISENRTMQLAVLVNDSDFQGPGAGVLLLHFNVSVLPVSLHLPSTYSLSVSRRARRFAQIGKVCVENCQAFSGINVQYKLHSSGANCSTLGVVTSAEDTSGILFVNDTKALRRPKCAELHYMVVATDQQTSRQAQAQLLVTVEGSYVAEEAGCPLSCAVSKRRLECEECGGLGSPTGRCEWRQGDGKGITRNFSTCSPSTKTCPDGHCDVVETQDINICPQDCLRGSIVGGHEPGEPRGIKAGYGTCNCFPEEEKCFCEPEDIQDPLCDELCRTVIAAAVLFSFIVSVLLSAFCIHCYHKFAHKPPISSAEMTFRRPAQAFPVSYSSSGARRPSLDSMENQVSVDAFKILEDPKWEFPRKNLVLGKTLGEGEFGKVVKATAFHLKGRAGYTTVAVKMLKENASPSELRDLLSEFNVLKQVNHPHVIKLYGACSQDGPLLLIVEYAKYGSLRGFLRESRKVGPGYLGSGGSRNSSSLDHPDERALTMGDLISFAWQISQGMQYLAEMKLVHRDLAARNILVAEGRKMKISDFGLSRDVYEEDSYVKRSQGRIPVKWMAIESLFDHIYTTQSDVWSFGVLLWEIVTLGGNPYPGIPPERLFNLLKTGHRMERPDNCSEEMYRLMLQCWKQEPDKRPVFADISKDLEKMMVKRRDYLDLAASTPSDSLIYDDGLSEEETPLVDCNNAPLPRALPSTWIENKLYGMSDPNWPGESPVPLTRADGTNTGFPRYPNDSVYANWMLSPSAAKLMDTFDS
Photoreceptor-specific nuclear receptor, sequence (Q9Y5X4 whole entry): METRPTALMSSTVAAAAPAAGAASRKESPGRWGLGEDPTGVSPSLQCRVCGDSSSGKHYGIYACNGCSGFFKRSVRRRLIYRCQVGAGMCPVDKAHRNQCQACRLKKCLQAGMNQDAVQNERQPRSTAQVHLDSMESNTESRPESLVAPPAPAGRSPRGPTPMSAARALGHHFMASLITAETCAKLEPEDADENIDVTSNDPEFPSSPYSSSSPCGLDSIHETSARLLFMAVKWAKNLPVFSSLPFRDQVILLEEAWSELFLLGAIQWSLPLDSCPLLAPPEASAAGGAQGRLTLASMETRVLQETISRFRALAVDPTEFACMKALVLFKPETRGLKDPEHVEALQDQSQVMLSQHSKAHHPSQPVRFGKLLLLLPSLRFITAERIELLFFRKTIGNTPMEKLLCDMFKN
Protein kinase C theta type, sequence (Q04759 whole entry): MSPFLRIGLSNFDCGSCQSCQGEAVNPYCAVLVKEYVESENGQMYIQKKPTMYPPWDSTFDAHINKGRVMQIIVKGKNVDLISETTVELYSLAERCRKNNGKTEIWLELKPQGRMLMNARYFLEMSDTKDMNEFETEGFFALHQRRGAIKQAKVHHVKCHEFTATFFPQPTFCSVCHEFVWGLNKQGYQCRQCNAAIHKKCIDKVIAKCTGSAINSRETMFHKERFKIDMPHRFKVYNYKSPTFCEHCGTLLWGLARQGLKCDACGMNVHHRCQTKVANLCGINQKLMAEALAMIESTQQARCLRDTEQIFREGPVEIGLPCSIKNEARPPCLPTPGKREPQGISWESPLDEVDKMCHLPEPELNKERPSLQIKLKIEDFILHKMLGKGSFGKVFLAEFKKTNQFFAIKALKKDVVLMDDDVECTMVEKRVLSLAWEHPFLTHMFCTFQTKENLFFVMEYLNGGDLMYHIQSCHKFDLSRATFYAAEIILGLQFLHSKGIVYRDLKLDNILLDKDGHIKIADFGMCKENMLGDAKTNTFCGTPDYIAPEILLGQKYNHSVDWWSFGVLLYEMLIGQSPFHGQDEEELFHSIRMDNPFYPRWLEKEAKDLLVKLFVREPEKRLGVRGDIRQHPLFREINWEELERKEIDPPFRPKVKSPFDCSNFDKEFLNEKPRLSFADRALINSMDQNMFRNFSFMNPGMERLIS
Intestinal-type alkaline phosphatase, sequence (P24822 whole entry): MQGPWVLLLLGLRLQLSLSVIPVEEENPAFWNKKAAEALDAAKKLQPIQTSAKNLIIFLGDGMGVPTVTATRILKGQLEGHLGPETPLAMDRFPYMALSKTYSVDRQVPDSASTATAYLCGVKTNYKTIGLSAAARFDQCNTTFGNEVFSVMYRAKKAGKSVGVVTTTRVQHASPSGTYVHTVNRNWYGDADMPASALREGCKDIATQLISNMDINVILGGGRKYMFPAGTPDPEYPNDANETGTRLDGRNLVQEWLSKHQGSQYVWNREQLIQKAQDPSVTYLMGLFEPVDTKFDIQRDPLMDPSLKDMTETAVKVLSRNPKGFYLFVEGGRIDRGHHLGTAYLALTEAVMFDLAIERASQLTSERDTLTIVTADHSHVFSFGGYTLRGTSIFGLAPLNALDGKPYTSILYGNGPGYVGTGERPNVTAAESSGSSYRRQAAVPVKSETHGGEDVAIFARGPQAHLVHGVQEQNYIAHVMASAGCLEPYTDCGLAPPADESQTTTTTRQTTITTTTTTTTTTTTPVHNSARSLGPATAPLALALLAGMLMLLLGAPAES
Mitogen-activated protein kinase 14, sequence (Q16539 whole entry): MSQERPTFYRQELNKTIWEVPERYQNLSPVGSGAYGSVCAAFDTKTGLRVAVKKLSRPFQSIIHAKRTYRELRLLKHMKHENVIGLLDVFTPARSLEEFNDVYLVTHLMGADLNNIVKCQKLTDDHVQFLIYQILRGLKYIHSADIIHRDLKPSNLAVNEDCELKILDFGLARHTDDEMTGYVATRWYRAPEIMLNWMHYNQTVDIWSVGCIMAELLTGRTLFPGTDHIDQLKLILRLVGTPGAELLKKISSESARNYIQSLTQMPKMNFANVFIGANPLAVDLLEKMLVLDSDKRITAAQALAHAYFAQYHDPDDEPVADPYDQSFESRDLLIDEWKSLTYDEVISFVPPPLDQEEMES
Ribosomal protein S6 kinase alpha-3, sequence (P51812 whole entry): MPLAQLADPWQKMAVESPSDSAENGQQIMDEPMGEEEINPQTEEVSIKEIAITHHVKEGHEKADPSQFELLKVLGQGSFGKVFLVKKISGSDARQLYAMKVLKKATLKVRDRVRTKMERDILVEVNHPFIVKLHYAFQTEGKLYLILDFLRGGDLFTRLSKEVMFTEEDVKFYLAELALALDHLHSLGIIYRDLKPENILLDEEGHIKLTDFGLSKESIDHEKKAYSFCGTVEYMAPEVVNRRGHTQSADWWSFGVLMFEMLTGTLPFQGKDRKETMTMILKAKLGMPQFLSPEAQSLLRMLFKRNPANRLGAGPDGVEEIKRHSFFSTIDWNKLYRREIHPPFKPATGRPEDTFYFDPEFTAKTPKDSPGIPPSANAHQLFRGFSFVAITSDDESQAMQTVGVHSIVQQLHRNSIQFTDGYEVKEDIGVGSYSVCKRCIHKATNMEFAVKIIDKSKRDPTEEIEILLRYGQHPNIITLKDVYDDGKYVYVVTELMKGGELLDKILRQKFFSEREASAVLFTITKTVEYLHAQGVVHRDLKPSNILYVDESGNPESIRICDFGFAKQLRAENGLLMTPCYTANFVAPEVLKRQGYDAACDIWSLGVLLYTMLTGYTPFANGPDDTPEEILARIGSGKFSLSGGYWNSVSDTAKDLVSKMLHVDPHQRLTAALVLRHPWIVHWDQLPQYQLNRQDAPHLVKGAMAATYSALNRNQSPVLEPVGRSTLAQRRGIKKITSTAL
SUMO-activating enzyme, sequence (Q9UBE0 whole entry): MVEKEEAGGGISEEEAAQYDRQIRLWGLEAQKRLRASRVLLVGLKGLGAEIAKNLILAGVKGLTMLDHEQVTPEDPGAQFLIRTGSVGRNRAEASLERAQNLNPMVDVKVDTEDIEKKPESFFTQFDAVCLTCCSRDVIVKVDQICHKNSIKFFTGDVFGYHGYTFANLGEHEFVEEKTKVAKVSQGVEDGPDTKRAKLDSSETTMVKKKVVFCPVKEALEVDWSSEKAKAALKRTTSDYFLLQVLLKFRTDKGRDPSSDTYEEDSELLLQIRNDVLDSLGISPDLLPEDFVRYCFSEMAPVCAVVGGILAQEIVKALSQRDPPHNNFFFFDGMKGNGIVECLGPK
SUMO-activating enzyme, sequence (Q9UBT2 whole entry): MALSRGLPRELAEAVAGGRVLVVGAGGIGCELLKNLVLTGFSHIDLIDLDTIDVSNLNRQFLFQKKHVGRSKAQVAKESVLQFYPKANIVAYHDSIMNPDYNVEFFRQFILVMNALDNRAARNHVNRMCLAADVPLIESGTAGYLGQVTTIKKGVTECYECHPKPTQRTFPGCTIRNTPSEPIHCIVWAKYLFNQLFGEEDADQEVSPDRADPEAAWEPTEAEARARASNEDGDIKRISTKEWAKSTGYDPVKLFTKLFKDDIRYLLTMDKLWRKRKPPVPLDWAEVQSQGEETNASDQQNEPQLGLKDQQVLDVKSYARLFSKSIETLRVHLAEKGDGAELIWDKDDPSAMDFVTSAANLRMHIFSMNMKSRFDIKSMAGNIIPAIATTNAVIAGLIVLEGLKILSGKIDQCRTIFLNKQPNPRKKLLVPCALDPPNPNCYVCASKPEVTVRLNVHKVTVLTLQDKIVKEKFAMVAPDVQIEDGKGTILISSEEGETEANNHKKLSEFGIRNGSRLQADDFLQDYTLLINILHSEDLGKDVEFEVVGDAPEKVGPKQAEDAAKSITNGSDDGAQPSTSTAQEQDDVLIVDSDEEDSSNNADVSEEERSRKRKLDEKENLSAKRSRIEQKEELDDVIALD

SMILES: Cc1ccc(C(=O)OCn2ncc(Cl)c(Cl)c2=O)cc1
IC50 [1]: 6.12 µM (active)

IC50 [2]: > 39.8 µM (not active) | IC50 [3]: > 39.8 µM (not active) | AC50 [4]: 4.16 µM (active) | IC50 [5]: 30.4 µM (active) | IC50 (SUMO-activating enzyme): 13.7 µM (active)
SMILES: O=C(O)CC(C(=O)O)N1C(=O)/C(=C/C=C/c2ccco2)SC1=S (stereo unspecified)

Ki [6]: 1 µM (active) | Ki [7]: > 3.98 µM (inactive) | Ki [8]: > 3.98 µM (inactive) | Ki [9]: > 3.16 µM (inactive)
SMILES: O=C(Nc1cccc(C2Nc3ccc4ccccc4c3C3C=CCC32)c1)c1ccc(F)cc1 (stereo unspecified)

SMILES: CCCC(=O)NC(c1cccs1)c1cc(Cl)c2cccnc2c1O (stereo unspecified)
AC50 [10]: 4.9 µM (active)

— ChEMBL document CHEMBL1201862, “PubChem BioAssay data set” (2004)
